The values below come from patent US20240285583A1, “PHARMACEUTICAL COMPOSITION COMPRISING 1-(3-CYANO-1-ISOPROPYL-INDOL-5-YL)PYRAZOLE-4-CARBOXYLIC ACID” (LG CHEM, LTD., priority 2021, published 2024).

The test system of one data set is gout patients. Conditions: patient group receiving the drug, previous results; cited from earlier work.
Data set [1] concerns gout patient group. Briefly: Phase 2 clinical trial (NCT03934099): blood uric acid concentration in gout patients. It is filed as in vivo, human. As for the experimental part: (§1) A phase 2 clinical trial was conducted to analyze the dosage, TEAEs, and the like when the compound of Formula 1 (1-(3-cyano-1-isopropyl-indol-5-yl)pyrazol-4-carboxylic acid; compound of Example 1) is administered to a gout patient group.
• 1. Written informed consent (signed and dated) provided voluntarily prior to the start of the study. • 2. Male or female aged from 18 to 75 • 3. History or experience of hyperuricemia and gout in accordance with the criteria of the American College of Rheumatology. • 4. Self-reported history of 2 or more gout flare within 12 months prior to screening visit (Visit 1). • 5. Blood uric acid (sUA) levels at Visit 1 of 6.0 mg/dL or more in subjects who were receiving urate lower therapy (ULT) with allopurinol, febuxostat, probenecid, or lesinurad; and SUA levels at Visit 1 of 8.0 mg/dL or more and 12.0 mg/dL or less in subjects who had no history of receiving the ULT or were not receiving the ULT at visit 1. • 6. SUA levels of 8.0 mg/dL or more and 12.0 mg/dL or less at Visit 3. • 7. Body mass index of 42 kg/m^2 or less at screening visit (Visit 1). • 8. Estimated glomerular filtration rate (eGFR) of 60 mL/min/1.73 m^2 or more at screening visit (Visit 1). • 9. Subjects of childbearing potential with a negative pregnancy test result at screening visit (Visit 1). […]

Data set [2] deals with gout patient group. Briefly: Phase 2 clinical trial (NCT03934099): analysis of TEAEs. It is filed as in vivo, human. As for the experimental part:
as §1
Selected patients gave written informed consent according to institutional and study procedures. After screening and wash-out processes (days 26 to 33 pre-dose), a total of 156 patients were finally enrolled, and each patient was randomly assigned to 5 groups of 50 mg, 100 mg and 200 mg dosing groups of the compound of Example 1, a placebo group, and a febuxostat group. Patients in each group self-administered 1 tablet of a combination drug (colchicine, 0.6 mg/day) for the prevention of gout flare along with the assigned investigational drug (50 mg, 100 mg and 200 mg doses of the compound of Example 1, placebo, and 40 mg of febuxostat group) orally, once every morning, at about the same time each day, with water, regardless of food.
The drug was administered for 84 days by setting the first dosing day of the drug as day 1, and basic tests, blood uric acid concentration and the like were measured at clinic visits on 14 days (week 2), 28 days (week 4), 56 days (week 8), and 84 days (week 12) during the dosing period to determine whether TEAEs occurred. After the end of drug administration, a safety follow-up was performed for an additional 2 weeks (98 days, week 14).
Among all patient groups participating in the clinical trial, although the administration was stopped for 3 patients due to headache, gout flare in the left ankle, and liver dysfunction in the 100 mg dosing group of Example 1 and for 1 patient due to an increase in hepatic enzyme in the 200 mg dosing group, no significant treatment emergency adverse event (TEAE) was found in the remaining patient groups.

A value given as a limit tells only on which side of the number the result lay.

For the compound `Oc1ncnc2[nH]ncc12` [allopurinol], the “patients with a blood uric acid concentration of less than 6 mg/dL” value with gout patients is on record as “about 40%”.

As for `CC(C)n1cc(C#N)c2cc(-n3cc(C(=O)O)cn3)ccc21` [Example 1, 1-(3-cyano-1-isopropyl-indol-5-yl)pyrazole-4-carboxylic acid], the “blood uric acid lowering effect compared to febuxostat” value in the data set on gout patient group [1] (50 mg, 100 mg, 200 mg vs febuxostat 40 mg) is reported as “equivalent or higher blood uric acid lowering effect”. Moreover, in the data set on gout patient group [1] (doses of 50 mg, 100 mg and 200 mg, reached within 2 weeks), the “blood uric acid concentration kept within the normal range during the dosing period” value is given as less than 6.0 mg/dL. In the data set with gout patient group [2] (50 mg, 100 mg and 200 mg groups, vs placebo and febuxostat groups), the “incidence of TEAEs” value is given as “did not show a significant difference in the incidence of TEAEs”. Besides, the “patients for whom administration was stopped” value was determined as 3 patients in the data set on gout patient group [2] (100 mg dosing group, headache, gout flare in the left ankle, liver dysfunction) and 1 patient with gout patient group [2] (200 mg dosing group, increase in hepatic enzyme). In the data set with gout patient group [2] (all dosing groups), the “adverse cardiovascular TEAEs” value was “no reports of adverse cardiovascular TEAEs having a causal relationship”.
